The text below walks through data of PMC9666501, “Screening for effective cell-penetrating peptides with minimal impact on epithelial cells and gut commensals in vitro” (Frontiers in Pharmacology, 2022).

In data set [1] the test system is Caco-2 cells. The data set is classed as cell-based. The settings on record: CPP 1, 5, 10, 50, 100 µM in DMEM, 1 h treatment (legend; method says 2 h), 37°C, Incucyte imaging, n = 2. As for the experimental part:
Caco-2 cells were seeded (6 × 10^3 cells/well) in Corning™ Costar™ 96-Well, Cell Culture-Treated, Flat-Bottom Microplate and grown at 37°C with 5% CO2 until reaching confluence. […] Fluorescence was measured with microplate reader Synergy™ H1 BioTek; (excitation wavelength: 560 nm, emission wavelength: 590 nm) and a curve of Relative Fluorescence Units (RFU) against different concentrations of CPPs was plotted.
[…] The cells were then imaged using the Incucyte® Live-Cell analysis instrument. Cytotox Red dye dilution: The dye was diluted to a stock concentration of 100 µM in PBS. This was further diluted in full media to yield a final concentration of 250 nM before adding to the cells.

Data set [2] concerns Caco-2 cells. Description: AlamarBlue cell viability assay. The data set is classed as cell-based, human. The settings on record: CPP 5 µM, 1 h treatment (legend; method says 2 h), 37°C, fluorescence 560/590 nm, n = 3. On the procedure: Caco-2 cells were seeded (6 × 10^3 cells/well) in Corning™ Costar™ 96-Well, Cell Culture-Treated, Flat-Bottom Microplate and grown at 37°C with 5% CO2 until reaching confluence. For alamarBlue cell viability staining, cells were exposed to treatments (DMEM + AlamarBlue (10 µL) + CPPs) at different concentrations and incubated for 2 h at 37°C with 5% CO2. Fluorescence was measured with microplate reader Synergy™ H1 BioTek; (excitation wavelength: 560 nm, emission wavelength: 590 nm) and a curve of Relative Fluorescence Units (RFU) against different concentrations of CPPs was plotted.
In general terms: The colour change of resazurin is a common sign of viable cells or microbes.

For data set [3], the system named is Caco-2 monolayers. Description: FITC-dextran translocation assay. Type of data set: cell-based, human. The settings on record: Caco-2 monolayers 21 days; each CPP at a concentration without cytotoxicity, apical, 1 h, 37 °C, pH 7.4; then 1 mg/ml FITC-dextran 4 for 30 min; fluorescence; n = 3. On the procedure: For Fluorescein Isothiocyanate (FITC)-Dextran permeability experiments, Caco-2 monolayers differentiated for 21 days were transferred to 12-well plates containing 1.5 ml phenol red free DMEM media (pH 7.4) in the basal compartments. For the treatment, medium in the apical compartment was replaced by 0.5 ml phenol red free DMEM medium containing different concentrations of CPPs, and the plates were incubated at 37 °C for 1 h. Post treatment, inserts were transferred to a new 12-well plate containing 1.5 ml fresh phenol red free DMEM and the apical medium was replaced by medium containing 1 mg/ml FITC-dextran 4 (Sigma-Aldrich). The incubation with the permeability marker lasted for 30 min. Samples were collected from the basolateral compartments post incubation and fluorescence was measured using multi-well fluorescent plate reader (Synergy; excitation wavelength: 490 nm, emission wavelength: 520 nm). The concentration of FITC-dextran in the samples was calculated by comparing the relative fluorescence values to the FITC-dextran standard curve. The apparent permeability coefficient (Papp, cm/s) was calculated according to Eq. 1. Papp=dQ/dt×1/(A×C0), (1) Where dQ/dt is the drug permeation rate (μg/s); a is the surface area of the inserts (cell monolayer) (cm^2); and C0 is the initial concentration at the apical side (μg/ml).

Data set [4] relates to Bacteroides thetaiotaomicron DSM 2079. Nature of the data set: Broth microdilution antimicrobial assay. Type of data set: cell-based. The following applies: B. thetaiotaomicron; microbroth dilution in mGAM, anaerobic, 37 °C, 24 h, OD600; CPP 0.01-100 µM. On the procedure: (§1) Gut commensal microbial strains used in this study (Table 2) were purchased from […] (ATCC) and DSMZ, Germany. The growth and screening experiments were performed in modified Gifu Anaerobic Medium (mGAM) (HyServe GmbH and Co.) as all the strains could grow well in this media. mGAM was pre-reduced for a minimum of 1 day in the anaerobic chamber (Coy laboratory products Inc.) before use.
(§2) The antimicrobial effects of CPPs were determined by performing microbroth dilution method. The overnight cultures of the strains were diluted 100-fold in mGAM broth and 100 µL of the diluted cultured were distributed in the 96-well microplate. Next, 100 µL of CPPs in their respective concentrations were added to respective wells. Plates were incubated aerobically (Escherichia coli Nissle, Escherichia coli K12, and Saccharomyces boulardii) or anaerobically (rest of the strains) at 37 °C for 24 h with or without shaking, respectively. Reading of each plate was performed by measuring the optical density (OD) at 600 nm in a microplate reader (Synergy™ H1 BioTek). The final absorbance values were normalized and represented as values between 0 and 1 as a heat map, where 0 being full inhibition and 1 being no inhibition. The MIC was determined as the minimum concentration of the CPPs at which no significant growth of the strain was observed as compared to medium only (blank).

Data set [5] concerns Bacteroides vulgatus ATCC 8482. Description: Broth microdilution antimicrobial assay. Type of data set: cell-based. The settings on record: B. vulgatus; microbroth dilution in mGAM, anaerobic, 37 °C, 24 h, OD600; CPP 0.01-100 µM. As for the experimental part: as §1, §2
Background: Dilution methods test growth across graded concentrations, often in twofold steps.

For data set [6], the system named is Bifidobacterium adolescentis DSM 20083. Description: Broth microdilution antimicrobial assay. The settings on record: microbroth dilution in mGAM, anaerobic, 37 °C, 24 h, OD600, CPP 0.01-100 µM. Type of data set: cell-based. On the procedure:
as §1, §2

The test system of data set [7] is Bifidobacterium longum ATCC 15697. Description: Broth microdilution antimicrobial assay. The following applies: microbroth dilution in mGAM, anaerobic, 37 °C, 24 h, OD600, CPP 0.01-100 µM. Type of data set: cell-based. As for the experimental part: as §1, §2
In data set [8] the test system is Clostridium bolteae DSM 29485. Description: Broth microdilution antimicrobial assay. The data set is classed as cell-based. The settings on record: microbroth dilution in mGAM, anaerobic, 37 °C, 24 h, OD600, CPP 0.01-100 µM. As for the experimental part: as §1, §2
For data set [9], the system named is Escherichia coli K12 MG 1655. Description: Broth microdilution antimicrobial assay. Type of data set: cell-based. The following applies: microbroth dilution in mGAM, aerobic with shaking, 37 °C, 24 h, OD600, CPP 0.01-100 µM. On the procedure: as §1, §2
The test system of data set [10] is Escherichia coli Nissle 1917 (Mutaflor). Nature of the data set: Broth microdilution antimicrobial assay. Type of data set: cell-based. The following applies: microbroth dilution in mGAM, aerobic with shaking, 37 °C, 24 h, OD600, CPP 0.01-100 µM. As for the experimental part: as §1, §2
The subject of data set [11] is Lactobacillus gasseri DSM 20077. Nature of the data set: Broth microdilution antimicrobial assay. Type of data set: cell-based. The following applies: microbroth dilution in mGAM, anaerobic, 37 °C, 24 h, OD600, CPP 0.01-100 µM. As for the experimental part: as §1, §2
For data set [12], the system named is Latilactobacillus sakei ATCC 15521. Nature of the data set: Broth microdilution antimicrobial assay. The settings on record: microbroth dilution in mGAM, anaerobic, 37 °C, 24 h, OD600, CPP 0.01-100 µM. Type of data set: cell-based. As for the experimental part:
as §1, §2

Data set [13] has as its system 10 commensal gut microbial strains. Nature of the data set: Broth microdilution antimicrobial assay, panel summary. Type of data set: cell-based. The settings on record: range over the strains that were totally inhibited; mGAM, 37 °C, 24 h. On the procedure:
as §1, §2

The subject of data set [14] is Caco-2 monolayers. The settings on record: CPP 3 µM; ref Bocsik et al in 2019; cited from earlier work. As for the experimental part:
In the present work we systematically screened for effective CPPs that promote intestinal permeation through paracellular route and have negligible or no harmful effects against human epithelial cells and gut microbial strains. […] The results from the cytotoxicity and cell viability assays were in concordance except for RRL helix and PN159 at 5 µM. This minor difference most likely has to do with the sensitivity of the assay. The reducing capacity of the cells (as measured by AlamarBlue) is not the same as membrane integrity (as measured by Cytotoxic Red).

Entries after “also recorded” stand apart in the source; their conditions may differ.

`CC(C)C[C@H](NC(=O)[C@H](C)NC(=O)[C@H](CCCCN)NC(=O)[C@H](CC(C)C)NC(=O)[C@H](C)NC(=O)[C@H](CC(C)C)NC(=O)[C@H](CCCCN)NC(=O)[C@H](CC(C)C)NC(=O)[C@H](C)NC(=O)[C@H](CC(C)C)NC(=O)[C@@H](N)CCCCN)C(=O)N[C@@H](CCCCN)C(=O)N[C@@H](C)C(=O)N[C@@H](C)C(=O)N[C@@H](CC(C)C)C(=O)N[C@@H](CCCCN)C(=O)N[C@@H](CC(C)C)C(=O)N[C@@H](C)C(N)=O` [PN159]: the “Cytotoxicity (Cytotox Red dye staining, dead cells)” value with Caco-2 cells [1] is reported as “toxic at 5 µM; also recorded: Toxicity from 5 μM”. For the same compound, the “Cell viability (AlamarBlue, % live cells vs control)” value with Caco-2 cells [2] is on record as “no significant toxic effect; also recorded: no significant effect on cell viability”. Further, the “Paracellular permeability of FITC-dextran (Papp A-B)” value in the data set with Caco-2 monolayers [3] was “highest paracellular permeability”. Moreover, the “Minimum inhibitory concentration (MIC)” value in [4] is on record as 10 µM; in data set [5], 10 µM; in data set [6] it was 10 µM; in data set [7], 1 µM; in data set [8], 1 µM; in [9], 5 µM. Further, the entries for the “Minimum inhibitory concentration (MIC)” value in [10], in data set [11] and in [12] were 50 µM, 5 µM and 1 µM, respectively. Moreover, in data set [13], the “MICs over the totally inhibited strains of the panel” value fell in the range of 1 to 50 µM. For the same compound, in the data set on Caco-2 monolayers [14], the “Paracellular permeability of Caco-2 monolayers via tight junction modulation” value is given as “significantly improve paracellular permeability of Caco-2 monolayers”.
